Usually Ki stands for a measure of affinity in units of concentration, obtained from inhibition or displacement. The low end stands for tighter binding, the high end for weaker binding.

The values below come from ChEMBL document CHEMBL1121453, “Mammalian alkaloids. 8. Synthesis and biological effects of tetrahydropapaveroline related 1-benzyltetrahydroisoquinolines” (J Med Chem, 1980).

Molecules are shown by their SMILES. A value given as a limit tells only on which side of the number the result lay.

Holding throughout (format): cell membranes, Membrane
One experiment has as its target Adrenergic receptor beta (Rattus norvegicus, UniProt P18090+P10608+P26255). Kind of experiment: Inhibition of [3H]dihydroalprenolol binding to Beta adrenergic receptor from rat cerebral cortical membranes.
The target in experiment [1] is Adrenergic receptor alpha. Kind of experiment: Inhibition of [3H]WB-4101 binding to alpha adrenergic receptor from rat cerebral cortical membranes.
The target in the next experiment is Dopamine receptor. Put plainly: Inhibition of [3H]spiroperidol binding to dopamine receptor from rat striatum membranes.

Take `Oc1ccc(C[C@H]2NCCc3cc(O)c(O)cc32)cc1O`: the Ki amounted to 30 µM at Adrenergic receptor beta, 25 µM in experiment [1] and 35 µM at Dopamine receptor.

For `COc1cc(C[C@@H]2NCCc3cc(O)c(O)cc32)cc(OC)c1OC` [TRETOQUINOL], the Ki in experiment [1] was 10 µM; at Dopamine receptor it was 5 µM.

For the compound `Oc1ccc(C[C@@H]2NCCc3cc(O)c(O)cc32)cc1O`, the Ki on Adrenergic receptor beta stood at 0.3 µM; in experiment [1], 5 µM; at Dopamine receptor it was 2 µM.

Consider `COc1ccc(CC2NCCc3cc(OC)c(O)cc32)cc1O` (configuration not stated), for which the Ki on Adrenergic receptor beta was determined as 4 µM; in experiment [1] it was 7.5 µM; at Dopamine receptor, 3.8 µM.

As to `COc1ccc(C[C@@H]2NCCc3cc(OC)c(O)cc32)cc1O`, the Ki turned out to be 1.3 µM on Adrenergic receptor beta, 5 µM in experiment [1] and 1.5 µM at Dopamine receptor.

Take `COc1ccc(CC2NCCc3cc(OC)c(OC)cc32)cc1OC` (configuration not stated) [TETRAHYDROPAPAVERINE]: the Ki turned out to be 1 µM at Adrenergic receptor beta and 10 µM in experiment [1].

Regarding `Oc1cc(Br)c(CC2NCCc3cc(O)c(O)cc32)cc1O` (configuration not stated), the values for the Ki (on Adrenergic receptor beta; in experiment [1]; on Dopamine receptor) were 40 µM, 0.5 µM and 1.5 µM, respectively.

On to `COc1cc(CC2NCCc3cc(O)c(O)cc32)ccc1O` (configuration not stated), for which the results for the Ki (at Adrenergic receptor beta; in experiment [1]; on Dopamine receptor) were 0.5 µM, 4.5 µM and 5 µM, respectively.

Take `O=C(O)C1(Cc2ccc(O)c(O)c2)NCCc2cc(O)c(O)cc21` (configuration not stated): the Ki (at Adrenergic receptor beta; in experiment [1]; on Dopamine receptor) was above 100 µM in each case.

With `COc1cc(CC2(C(=O)O)NCCc3cc(O)c(O)cc32)ccc1O` (configuration not stated), the Ki (on Adrenergic receptor beta; in experiment [1]; at Dopamine receptor) was above 100 µM throughout.

With `COc1cc2c(cc1O)C(Cc1ccc(O)c(O)c1)NCC2` (configuration not stated), the Ki on Adrenergic receptor beta was found to be 0.2 µM; in experiment [1], 7.5 µM; on Dopamine receptor, 4.5 µM.

In the case of `Oc1ccc(CC2NCCc3cc(O)c(O)cc32)cc1O` (configuration not stated), the Ki on Adrenergic receptor beta stood at 0.3 µM; in experiment [1] it was 40 µM; at Dopamine receptor, 10 µM.

In the case of `COc1ccc(C[C@H]2NCCc3cc(OC)c(O)cc32)cc1O`, the results for the Ki (on Adrenergic receptor beta; in experiment [1]; on Dopamine receptor) were 30 µM, 10 µM and 30 µM, respectively.
